{"source": "patent US4772704A", "about": "“2,5-disubstituted-4(3H)-pyrimidones having histamine H2 -receptor antagonist activity” (Bristol-Myers Company, priority 1983, dated 1988)", "key": {"[1]": {"test_system": "histamine H2-receptor", "conditions": "relative to burimamide or metiamide; cited from earlier work"}, "[2]": {"test_system": "histamine H2-receptor", "conditions": "man; cited from earlier work"}, "[3]": {"test_system": "gastric acid secretion", "assay": "Gastric Antisecretory Activity in the Gastric Fistula Rat", "format": "in vivo, Male Long Evans rats", "conditions": "sc", "protocol": "Determination of Gastric Antisecretory Activity in the Gastric Fistula Rat Male Long Evans rats weighing about 240-260 grams at the time of cannula implantation are used. […] The fistula components are designed and the operative procedure is carried out exactly as described in the above reference. Post operatively the animals are individually housed in solid bottom cages with sawdust and are allowed food and water ad libitum throughout the entire recovery period. Animals are not used for test purposes for at least 15 days after the operative procedure. The animals are fasted but allowed water ad libitum for 20 hours before the testing procedure is to begin. […] The catheter is then screwed into the cannula in place of the plugging screw and the rat is placed in a clear plastic rectangular cage measuring 40 cm long, 15 cm wide and 13 cm high. The bottom of the cage has a slit approximately 1.5 cm wide and 25 cm long running down the center to accommodate the catheter which hangs through it. […] Chem. Path. […] Titratable acid output is calculated in microequivalents by multiplying the volume in milliliters by the acid concentration in milliequivalents per liter. Results are expressed as percent inhibition relative to control readings. Dose response curves are constructed and ED50 values are calculated by regression analyses. […]"}, "[4]": {"test_system": "histamine-stimulated gastric acid output", "assay": "Gastric Antisecretory Activity In The Heidenhain Pouch Dog", "format": "in vivo, female dogs", "protocol": "Determination of Gastric Antisecretory Activity In The Heidenhain Pouch Dog\nPrior to surgery, hematology and blood chemistry profiles are obtained and an assessment made as to the general health of selected female dogs. Dogs are vaccinated with Tissue Vax 5 (DHLP--Pitman-Moore) and housed in general animal quarters for four weeks' observation so incipient diseases may become apparent. Dogs are fasted with water ad libitum 24 hours prior to surgery.\nAnesthesia is induced with Sodium Pentothal (Abbott) 25-30 mg/kg iv. Subsequent anesthesia is maintained with methoxyflurane (Pitman-Moore). A midline linea alba incision from xiphoid to umbilicus provides good exposure and ease of closure. The stomach is pulled up into the operative field, the greater curvature stretched out at multiple points and clamps placed along the selected line of incision. The pouch is made from the corpus of the stomach so that true parietal cell juice is obtained. About 30% of the corpus volume is resected. The cannula is made of light-weight,biologically-inert material such as nylon or Delrin with dimensions and attachments after DeVito and Harkins (J. Appl. Physiol., 14, 138 (1959). Post operatively, dogs are medicated with antibiotics and an analgesic. They are allowed 2-3 months for recovery. Experiments are carried out in the following way: Dogs are fasted overnight (≈18 hours) with water ad libitum prior to each experiment. The dogs are placed in a sling and a saphenous vein cannulated for drug administration. Histamine as the base (100 μg/kg/hr) and chlorpheniramine maleate (0.25 mg/kg/hr) are infused continuously (in a volume of 6 ml/hr) with a Harvard infusion pump.\nNinety minutes' infusion are allowed for the dogs to reach a steady state of acid output. At this time the drug or normal saline (control) is administered concomitantly with the secretagogue in a volume of 0.5 ml/kg over a 30 second period. When oral studies are to be carried out, the drug is administered via gastric gavage in a volume of 5 ml/kg. Infusion of the secretagogue is continued and 15 minute samples of the gastric juice are taken for 4.5 hours. Each sample is measured to the nearest 0.5 ml and titratable acidity is determined by titrating a 1 ml sample to pH 7.0 with 0.2N NaOH, using an Autoburet and an electrometric pH meter (Radiometer). Titratable acid output is calculated in microequivalents by multiplying the volume in milliliters by the acid concentration in milliequivalents per liter.\nResults are expressed as percent inhibition relative to control readings and the response is the average for five dogs at that dose level."}, "[5]": {"conditions": "cited from earlier work"}}}
{"compound": "CNC(=S)NCCSCc1nc[nH]c1C", "note": "[Metiamide]", "values": [{"measurement": "potency or effectiveness as histamine H2-antagonist, relative", "setting": "[1]", "result": "more potent than burimamide"}, {"measurement": "oral activity", "setting": "[2]", "result": "orally active in man"}]}
{"compound": "Nc1cnc(NCCCOc2cccc(CN3CCCCC3)c2)[nH]c1=O", "note": "[Example 2, 5-Amino-2-[3-(3-piperidinomethylphenoxy)propylamino]-4(3H)-pyrimidone]", "values": [{"measurement": "ED50", "setting": "[3]", "result": 0.15, "unit": "µmol/kg"}, {"measurement": "Potency Ratio [cimetidine = 1.0]", "setting": "[3]; cimetidine = 1.0", "result": 26}, {"measurement": "% Maximum Inhibition", "setting": "[4]; Intravenous, single dose 0.094 μmoles/kg, 5 dogs", "result": 90, "unit": "%"}, {"measurement": "Potency Ratio [cimetidine = 1.0]", "setting": "[4]; Intravenous", "result": 50}, {"measurement": "% Maximum Inhibition", "setting": "[4]; Oral, single dose 0.5 μmoles/kg, 5 dogs", "result": 86, "unit": "%"}, {"measurement": "Potency Ratio [cimetidine = 1.0]", "setting": "[4]; Oral", "result": 20}, {"measurement": "duration of antisecretory action relative to cimetidine", "setting": "[4]; both the intravenous and oral dog models", "result": "prolonged duration of action relative to cimetidine"}]}
{"compound": "CNC(=S)NCCCCc1cnc[nH]1", "note": "[Burimamide]", "values": [{"measurement": "oral absorption", "setting": "[5]", "result": "poor"}]}
{"compound": "CNC(=NC#N)NCCSCc1nc[nH]c1C", "note": "[Cimetidine, reference compound]", "values": [{"measurement": "% Maximum Inhibition", "setting": "[4]; Intravenous, dose 6.0 μmoles/kg, Heidenhain pouch dog", "result": 94, "unit": "%"}, {"measurement": "% Maximum Inhibition", "setting": "[4]; Oral, dose 12.0 μmoles/kg, Heidenhain pouch dog", "result": 95, "unit": "%"}, {"measurement": "potency or effectiveness as histamine H2-antagonist, relative", "setting": "[1]", "result": "as effective an histamine H2 -antagonist as metiamide"}]}
